Measured values published in ChEMBL document CHEMBL3885881, “DrugMatrix”.

Organism: Rattus norvegicus
Experiment: DrugMatrix - Regimen: Daily Repeat
Assay type: toxicity, organism-based, Sprague-Dawley
Parameters: regimen Daily Repeat, gender Male, age 6-8 weeks
Details: in vivo, po, route oral GAVAGE, […]; for ABSOLUTE BASOPHIL / ABSOLUTE EOSINOPHIL / ABSOLUTE LYMPHOCYTE / ABSOLUTE MONOCYTE / ABSOLUTE SEGMENTED NEUTROPHIL / BASOPHIL / EOSINOPHIL / ERYTHROCYTE COUNT / HEMATOCRIT / HEMOGLOBIN / LEUKOCYTE COUNT / LYMPHOCYTE / MEAN CORPUSCULAR HEMOGLOBIN / MEAN CORPUSCULAR HEMOGLOBIN CONCENTRATION / MEAN CORPUSCULAR VOLUME / MONOCYTE / NEUTROPHIL / NUCLEATED RED BLOOD CELLS / PLATELET COUNT: tissue Blood; for ALANINE AMINOTRANSFERASE / ALBUMIN / ALKALINE PHOSPHATASE / ASPARTATE AMINOTRANSFERASE / BLOOD UREA NITROGEN / CARBON DIOXIDE / CHLORIDE / CHOLESTEROL / CREATINE PHOSPHOKINASE / CREATININE / GLUCOSE / LACTATE DEHYDROGENASE / LIPASE / PHOSPHORUS / POTASSIUM / SODIUM / TOTAL BILIRUBIN / TOTAL PROTEIN / URIC ACID: tissue Plasma
[1] = 0 mg/kg, 72 h, dose level Control, time 3 day
[2] = 0 mg/kg, 120 h, dose level Control, time 5 day
[3] = 10 mg/kg, 72 h, dose level Low, time 3 day

COc1cc(N)c(Cl)cc1C(=O)NC1CCN(CCCOc2ccc(F)cc2)CC1OC (centres undefined) [CISAPRIDE]
ABSOLUTE BASOPHIL [1]: 0 CELLS/uL | ABSOLUTE EOSINOPHIL [1]: 13.67 CELLS/uL | ABSOLUTE LYMPHOCYTE [1]: 10069.5 CELLS/uL | ABSOLUTE MONOCYTE [1]: 50 CELLS/uL | ABSOLUTE SEGMENTED NEUTROPHIL [1]: 516.83 CELLS/uL | BASOPHIL [1]: 0% | EOSINOPHIL [1]: 0.17% | ERYTHROCYTE COUNT [1]: 5.44 x10E6/uL | HEMATOCRIT [1]: 33.88% | HEMOGLOBIN [1]: 13.23 G/DL | LEUKOCYTE COUNT [1]: 10.65 x10E3/uL | LYMPHOCYTE [1]: 94.67% | MEAN CORPUSCULAR HEMOGLOBIN [1]: 24.37 pg | MEAN CORPUSCULAR HEMOGLOBIN CONCENTRATION [1]: 39.05 G/DL | MEAN CORPUSCULAR VOLUME [1]: 62.38 fL | MONOCYTE [1]: 0.67% | NEUTROPHIL [1]: 4.5% | NUCLEATED RED BLOOD CELLS [1]: 0.33 /100WBC | PLATELET COUNT [1]: 414.5 x10E3/uL | ALANINE AMINOTRANSFERASE [1]: 72 u/L | ALBUMIN [1]: 3.75 G/DL | ALKALINE PHOSPHATASE [1]: 375 u/L | ASPARTATE AMINOTRANSFERASE [1]: 87.5 u/L | BLOOD UREA NITROGEN [1]: 14 mg/dL | CARBON DIOXIDE [1]: 27.5 mmol/L | CHLORIDE [1]: 95.83 MEQ/L | CHOLESTEROL [1]: 68.5 mg/dL | CREATINE PHOSPHOKINASE [1]: 284.33 u/L | CREATININE [1]: 0.16 mg/dL | GLUCOSE [1]: 156.67 mg/dL | LACTATE DEHYDROGENASE [1]: 101.83 u/L | LIPASE [1]: 9.67 u/L | PHOSPHORUS [1]: 10.33 mg/dL | POTASSIUM [1]: 5.22 MEQ/L | SODIUM [1]: 137.67 MEQ/L | TOTAL BILIRUBIN [1]: 0.13 mg/dL | TOTAL PROTEIN [1]: 5.43 G/DL | URIC ACID [1]: 0.8 mg/dL | ABSOLUTE BASOPHIL [2]: 0 CELLS/uL | ABSOLUTE EOSINOPHIL [2]: 20.67 CELLS/uL | ABSOLUTE LYMPHOCYTE [2]: 11518.33 CELLS/uL | ABSOLUTE MONOCYTE [2]: 47 CELLS/uL | ABSOLUTE SEGMENTED NEUTROPHIL [2]: 614 CELLS/uL | BASOPHIL [2]: 0% | EOSINOPHIL [2]: 0.17% | ERYTHROCYTE COUNT [2]: 5.61 x10E6/uL | HEMATOCRIT [2]: 34.25% | HEMOGLOBIN [2]: 13.38 G/DL | LEUKOCYTE COUNT [2]: 12.2 x10E3/uL | LYMPHOCYTE [2]: 94.33% | MEAN CORPUSCULAR HEMOGLOBIN [2]: 23.83 pg | MEAN CORPUSCULAR HEMOGLOBIN CONCENTRATION [2]: 39.08 G/DL | MEAN CORPUSCULAR VOLUME [2]: 61.03 fL | MONOCYTE [2]: 0.33% | NEUTROPHIL [2]: 5.17% | NUCLEATED RED BLOOD CELLS [2]: 0 /100WBC | PLATELET COUNT [2]: 941.83 x10E3/uL | ALANINE AMINOTRANSFERASE [2]: 68.83 u/L | ALBUMIN [2]: 4.12 G/DL | ALKALINE PHOSPHATASE [2]: 492.67 u/L | ASPARTATE AMINOTRANSFERASE [2]: 83.33 u/L | BLOOD UREA NITROGEN [2]: 14 mg/dL | CARBON DIOXIDE [2]: 37 mmol/L | CHLORIDE [2]: 98.67 MEQ/L | CHOLESTEROL [2]: 56.5 mg/dL | CREATINE PHOSPHOKINASE [2]: 167.33 u/L | CREATININE [2]: 0.17 mg/dL | GLUCOSE [2]: 157.5 mg/dL | LACTATE DEHYDROGENASE [2]: 104.83 u/L | LIPASE [2]: 10 u/L | PHOSPHORUS [2]: 10.43 mg/dL | POTASSIUM [2]: 5.46 MEQ/L | SODIUM [2]: 143.87 MEQ/L | TOTAL BILIRUBIN [2]: 0.17 mg/dL | TOTAL PROTEIN [2]: 5.72 G/DL | URIC ACID [2]: 0.85 mg/dL | ABSOLUTE BASOPHIL [3]: 0 CELLS/uL | ABSOLUTE EOSINOPHIL [3]: 28.67 CELLS/uL | ABSOLUTE LYMPHOCYTE [3]: 6489.33 CELLS/uL | ABSOLUTE MONOCYTE [3]: 15.33 CELLS/uL | ABSOLUTE SEGMENTED NEUTROPHIL [3]: 433.33 CELLS/uL | BASOPHIL [3]: 0% | EOSINOPHIL [3]: 0.33% | ERYTHROCYTE COUNT [3]: 5.4 x10E6/uL | HEMATOCRIT [3]: 33.3% | HEMOGLOBIN [3]: 13.8 G/DL | LEUKOCYTE COUNT [3]: 6.97 x10E3/uL | LYMPHOCYTE [3]: 93% | MEAN CORPUSCULAR HEMOGLOBIN [3]: 25.63 pg | MEAN CORPUSCULAR HEMOGLOBIN CONCENTRATION [3]: 41.53 G/DL | MEAN CORPUSCULAR VOLUME [3]: 61.73 fL | MONOCYTE [3]: 0.33% | NEUTROPHIL [3]: 6.33% | NUCLEATED RED BLOOD CELLS [3]: 0 /100WBC | PLATELET COUNT [3]: 546 x10E3/uL | ALANINE AMINOTRANSFERASE [3]: 94.67 u/L | ALBUMIN [3]: 3.93 G/DL | ALKALINE PHOSPHATASE [3]: 442.33 u/L | ASPARTATE AMINOTRANSFERASE [3]: 96.33 u/L | BLOOD UREA NITROGEN [3]: 14.33 mg/dL | CARBON DIOXIDE [3]: 26 mmol/L | CHLORIDE [3]: 96.33 MEQ/L | CHOLESTEROL [3]: 72.67 mg/dL | CREATINE PHOSPHOKINASE [3]: 359.33 u/L | CREATININE [3]: 0.12 mg/dL | GLUCOSE [3]: 150 mg/dL | LACTATE DEHYDROGENASE [3]: 116.67 u/L | LIPASE [3]: 12 u/L | PHOSPHORUS [3]: 10.9 mg/dL | POTASSIUM [3]: 5.56 MEQ/L | SODIUM [3]: 139.97 MEQ/L | TOTAL BILIRUBIN [3]: 0.2 mg/dL | TOTAL PROTEIN [3]: 5.53 G/DL | URIC ACID [3]: 0.7 mg/dL
